{"source": "ChEMBL document CHEMBL1147191", "about": "“Structure-activity relationship studies on anti-HCV activity of ring-expanded ('fat') nucleobase analogues containing the imidazo[4,5-e][1,3]diazepine-4,8-dione ring system” (Bioorg Med Chem Lett, 2007)", "key": {"[1]": {"experiment": "Cytotoxicity against Huh7 ET cells assessed as beta actin level relative to control", "type": "cell-based", "parameters": "concentration or dose not given beside the values", "conditions": "human"}, "[2]": {"system": "Hepatitis C virus", "experiment": "Antiviral activity against HCV in Huh7 ET cells assessed as HCV RNA derived luciferase activity at 10 uM by replicon assay relative to control", "type": "functional, Hepacivirus hominis"}, "[3]": {"experiment": "Selectivity index, ratio of toxicity against Huh7 ET cells to viral activity against HCV", "type": "functional"}}, "data": [{"smiles": "CCCCCCCCNc1nc(=O)c2c(nc(-c3ccc(OC)cc3)n2Cc2ccc(OC)cc2)c(=O)[nH]1", "values": [{"measurement": "Activity", "setting": "[1]", "result": 79, "unit": "%"}, {"measurement": "Activity", "setting": "[2]", "result": 54, "unit": "%"}, {"measurement": "Selectivity index", "setting": "[3]", "result": 1.463}]}, {"smiles": "NC(=O)c1ncn([C@@H]2O[C@H](CO)[C@@H](O)[C@H]2O)n1", "note": "[RIBAVIRIN]", "values": [{"measurement": "Activity", "setting": "[1]", "result": 12, "unit": "%"}, {"measurement": "Activity", "setting": "[2]", "result": 89, "unit": "%"}, {"measurement": "Selectivity index", "setting": "[3]", "result": 0.42}]}, {"smiles": "CCCCCCCCNc1nc(=O)c2c(nc(C#CCCO)n2Cc2ccc(OC)cc2)c(=O)[nH]1", "values": [{"measurement": "Activity", "setting": "[1]", "result": 52, "unit": "%"}, {"measurement": "Activity", "setting": "[2]", "result": 90, "unit": "%"}, {"measurement": "Selectivity index", "setting": "[3]", "result": 0.578}]}, {"smiles": "CCCCCCCCNc1nc(=O)c2c(nc(Br)n2Cc2ccc(OC)cc2)c(=O)[nH]1", "values": [{"measurement": "Activity", "setting": "[1]", "result": 69, "unit": "%"}, {"measurement": "Activity", "setting": "[2]", "result": 32, "unit": "%"}, {"measurement": "Selectivity index", "setting": "[3]", "result": 2.155}]}, {"smiles": "CCCCCCCCNc1nc(=O)c2c(nc(-c3ccccc3)n2Cc2ccc(OC)cc2)c(=O)[nH]1", "values": [{"measurement": "Activity", "setting": "[1]", "result": 82, "unit": "%"}, {"measurement": "Activity", "setting": "[2]", "result": 88, "unit": "%"}, {"measurement": "Selectivity index", "setting": "[3]", "result": 0.932}]}]}
